Test results: ChEMBL document CHEMBL1155550, “Rationale design of biotinylated antimalarial endoperoxide carbon centered radical prodrugs for applications in proteomics” (J Med Chem, 2010)

What follows are compounds tested on Plasmodium falciparum (assay: Antiplasmodial activity against chloroquine-sensitive Plasmodium falciparum 3D7 infected in human erythrocytes assessed as inhibition of [3H]hypoxanthine incorporation after 48 hrs by liquid scintillation counting). Conditions: not given; call rule not given here.
Type: functional, organism-based
`O=C(CCCC[C@@H]1SC[C@@H]2NC(=O)N[C@@H]21)NS(=O)(=O)c1cccc(CNC(=O)C23CC4CC(C2)[C@]2(OO[C@]5(CCCCC5)O2)C(C4)C3)c1` was tested, and the IC50 was “Not Active”.

Same assay, conditions: Plasmodium falciparum, 3D7; read-out: IC50
In the case of `OCC12CC3CC(C1)[C@]1(OO[C@]4(CCCCC4)O1)C(C3)C2`, the IC50 is reported as 8.4 nM.
With `O=C(NCCCC[C@H]1SC[C@H]2NC(=O)N[C@H]21)NCc1cccc(CNC(=O)C23CC4CC(C2)[C@]2(OO[C@]5(CCCCC5)O2)C(C4)C3)c1` the IC50 was 2.4 nM.
Work on `C[C@H]1[C@@H](CCOC(=O)NCCCCC[C@@H]2SC[C@@H]3NC(=O)N[C@@H]32)O[C@@H]2O[C@]3(C)CC[C@H]4[C@H](C)CC[C@@H]1[C@@]24OO3` yielded an IC50 of 1.6 nM.
Work on `CC(C)(C)OC(=O)NCc1cccc(CNC(=O)C23CC4CC(C2)[C@]2(OO[C@]5(CCCCC5)O2)C(C4)C3)c1` yielded an IC50 of 5.1 nM.
For `C[C@H]1[C@@H](CC(=O)NCc2cccc(CNC(=O)CCSSCCNC(=O)CCCC[C@@H]3SC[C@@H]4NC(=O)N[C@@H]43)c2)O[C@@H]2O[C@]3(C)CC[C@H]4[C@H](C)CC[C@@H]1[C@@]24OO3`, the IC50 was 91 nM.
Compound `O=C(NCc1cccc(CNC(=O)C23CC4CC(C2)[C@]2(OO[C@]5(CCCCC5)O2)C(C4)C3)c1)OCC1c2ccccc2-c2ccccc21` has an IC50 of 27 nM.
`O=C(O)C12CC3CC(C1)[C@]1(OO[C@]4(CCCCC4)O1)C(C3)C2` gave an IC50 of 150 nM.
In the case of `COC(=O)C12CC3CC(C1)[C@]1(OO[C@]4(CCCCC4)O1)C(C3)C2`, the IC50 is reported as 5.7 nM.
`C[C@H]1[C@@H](CC(=O)NCc2cccc(CNC(=O)c3ccc(S(=O)(=O)NC(=O)CCCC[C@@H]4SC[C@@H]5NC(=O)N[C@@H]54)cc3)c2)O[C@@H]2O[C@]3(C)CC[C@H]4[C@H](C)CC[C@@H]1[C@@]24OO3` gave an IC50 greater than 1000 nM.
